Data set [1] relates to Mycobacterium tuberculosis. Nature of the data set: Antimycobacterial activity against Mycobacterium tuberculosis H37Rv ATCC 27294 after 5 days by microplate alamar blue assay. The class given is functional. The following applies: H37Rv ATCC 27294, 120 h.
Data set [2] is described as follows: n-octanol/water partition coefficient, log P of the compound. The class given is physicochemical.
The nature of data set [3]: Cytotoxicity against African green monkey Vero cells assessed as cell viability at 100 uM by MTT assay relative to control. The following applies: chlorocebus sabaeus, read-out: Activity. The class given is cell-based. (In general: Tetrazolium assays rely on reduction of a dye to a coloured formazan, in cell work by metabolically active cells.)

In brackets after ≈: the same amount, converted by molar mass.

As a reminder, the MIC is the lowest concentration that inhibits growth of the organism. One may read the logP as a log measure of how a compound divides between an organic and an aqueous phase. In the case of `O=C(NNc1ccnc2cc(Cl)ccc12)c1ccccc1/N=C/c1ccc(F)cc1`, 6.25 µM (≈ 2.62 µg/mL) was the least that counted as inhibitory in data set [1] (MIC). In data set [2], this molecule registered a logP of 5.18. In addition, in data set [3], the viability at 100 µM is 90.7%.
The like results for `O=C(NNc1ccnc2cc(Cl)ccc12)c1ccccc1/N=C/c1cccc(Cl)c1Cl` were, in that order, 6.25 µM (≈ 2.94 µg/mL), 6.1 and 89.1%.
For `O=C(NNc1ccnc2cc(Cl)ccc12)c1ccccc1/N=C/C=C/c1ccccc1`, in that order: 3.12 µM (≈ 1.33 µg/mL), 5.54 and 90.2%.
The molecule `O=C(NNc1ccnc2cc(Cl)ccc12)c1ccccc1/N=C/c1ccccc1Cl` displayed an MIC in data set [1] of 25 µM (≈ 10.9 µg/mL). In data set [2], this molecule had a logP of 5.5. For the same molecule, in data set [3], the viability at 100 µM is 88.5%.
In turn, `COc1ccc(/C=N/c2ccccc2C(=O)NNc2ccnc3cc(Cl)ccc23)cc1` gave an MIC in data set [1] of 1.56 µM (≈ 0.672 µg/mL). Also, the logP in data set [2] worked out at 5. In data set [3], the viability at 100 µM was 88.9%.
As for `N#Cc1ccc(/C=N/c2ccccc2C(=O)NNc2ccnc3cc(Cl)ccc23)cc1`, 25 µM (≈ 10.6 µg/mL) was the least that counted as inhibitory in data set [1] (MIC). The logP in data set [2] was 4.83. The viability at 100 µM in data set [3] stood at 87.2%.
In data set [1], `O=C(NNc1ccnc2cc(Cl)ccc12)c1ccccc1/N=C/c1ccc(Br)cc1` had an MIC of 6.25 µM (≈ 3 µg/mL). The molecule also yielded a logP in data set [2] of 5.76. Further, the viability at 100 µM in data set [3] was found to be 88.5%.
The like results for `O=C(NNc1ccnc2cc(Cl)ccc12)c1ccccc1/N=C/c1ccncc1` were, in that order, 25 µM (≈ 10 µg/mL), 3.86 and 85.7%.
Molecule `CN(C)c1ccc(/C=N/c2ccccc2C(=O)NNc2ccnc3cc(Cl)ccc23)cc1` displayed an MIC in data set [1] of 3.12 µM (≈ 1.39 µg/mL). Moreover, the logP in data set [2] was found to be 5.03. Also, the viability at 100 µM in data set [3] was determined as 88.8%.
The like results for `COc1cc(/C=N/c2ccccc2C(=O)NNc2ccnc3cc(Cl)ccc23)cc(OC)c1OC` were, in that order, 6.25 µM (≈ 3.07 µg/mL), 4.94 and 89.4%.
For `O=C(NNc1ccnc2cc(Cl)ccc12)c1ccccc1/N=C/c1ccc(Cl)cc1`, in that order: 3.12 µM (≈ 1.36 µg/mL), 5.62 and 86.7%.
For `O=C(NNc1ccnc2cc(Cl)ccc12)c1ccccc1/N=C/c1ccc(Cl)c(Cl)c1`, in that order: 25 µM (≈ 11.7 µg/mL), 6.22 and 90.2%.
In data set [1], `O=C(NNc1ccnc2cc(Cl)ccc12)c1ccccc1/N=C/c1ccc(Cl)cc1Cl` gave an MIC of 6.25 µM (≈ 2.94 µg/mL). Besides, the lipophilicity (logP) in data set [2] worked out at 6.22. For the same molecule, the viability at 100 µM in data set [3] is 87.6%.
Take `O=C(NNc1ccnc2cc(Cl)ccc12)c1ccccc1/N=C/c1ccc([N+](=O)[O-])cc1`: the MIC in data set [1] was found to be 25 µM (≈ 11.1 µg/mL). This molecule gave a logP in data set [2] of 4.58. The viability at 100 µM in data set [3] was 88.6%.
The like results for `O=C(NNc1ccnc2cc(Cl)ccc12)c1ccccc1/N=C/c1cc2ccccc2nc1Cl` were, in that order, 25 µM (≈ 12.2 µg/mL), 6 and 94.3%.
With `COc1ccc(/C=N/c2ccccc2C(=O)NNc2ccnc3cc(Cl)ccc23)cc1OC`, it took 6.25 µM (≈ 2.88 µg/mL) to inhibit growth in data set [1] (MIC). The same molecule returned a logP in data set [2] of 4.97. In data set [3], the viability at 100 µM is 89.2%.
Molecule `COc1cc(/C=N/c2ccccc2C(=O)NNc2ccnc3cc(Cl)ccc23)ccc1Oc1ccnc2cc(Cl)ccc12` came in with an MIC in data set [1] of 3.12 µM (≈ 1.9 µg/mL). This molecule also registered a logP in data set [2] of 7.74. Also, the viability at 100 µM in data set [3] was found to be 89.5%.
The like results for `O=C(NNc1ccnc2cc(Cl)ccc12)c1ccccc1/N=C/c1cccs1` were, in that order, 6.25 µM (≈ 2.54 µg/mL), 4.78 and 89.5%.
The like results for `O=C(NNc1ccnc2cc(Cl)ccc12)c1ccccc1/N=C/c1cc2ccccc2[nH]c1=O` were, in that order, 25 µM (≈ 11.7 µg/mL), 4.65 and 91.1%.
`O=C(O)c1cn(C2CC2)c2cc(N3CCNCC3)c(F)cc2c1=O` [CIPROFLOXACIN] showed an MIC in data set [1] of 12.5 µM (≈ 4.14 µg/mL).
The molecule `NC(=O)c1cnccn1` [PYRAZINAMIDE] gave an MIC in data set [1] of 3.12 µM (≈ 0.384 µg/mL). In data set [2], this molecule yielded a logP of -0.71.
In data set [1], `O=C(NNc1ccnc2cc(Cl)ccc12)c1ccccc1/N=C/c1ccc(O)cc1` showed an MIC of 25 µM (≈ 10.4 µg/mL). Also, the log partition coefficient (logP) in data set [2] came to 4.65. Also, in data set [3], the viability at 100 µM amounted to 90.1%.
The like results for `Cc1ccc(/C=N/c2ccccc2C(=O)NNc2ccnc3cc(Cl)ccc23)cc1` were, in that order, 0.78 µM (≈ 0.324 µg/mL), 5.31 and 87.1%.

The values above are taken from ChEMBL document CHEMBL4049401, “Three-component, one-pot synthesis of anthranilamide Schiff bases bearing 4-aminoquinoline moiety as Mycobacterium tuberculosis gyrase inhibitors” (Bioorg Med Chem Lett, 2017).
